Consider eleven compounds from patent US12227490B2, “Cereblon binding compounds, compositions thereof, and methods of treatment therewith” (Celgene Corporation, priority 2020, dated 2025).

Counter-ions that a name gives are not always drawn.

For this assay, the target named is T1, AR (androgen receptor) protein in VCaP cells (Homo sapiens, UniProt P10275).
T1 construct: endogenous in cells; host or cells: VCaP cells
T1 sequence (P10275 1-920): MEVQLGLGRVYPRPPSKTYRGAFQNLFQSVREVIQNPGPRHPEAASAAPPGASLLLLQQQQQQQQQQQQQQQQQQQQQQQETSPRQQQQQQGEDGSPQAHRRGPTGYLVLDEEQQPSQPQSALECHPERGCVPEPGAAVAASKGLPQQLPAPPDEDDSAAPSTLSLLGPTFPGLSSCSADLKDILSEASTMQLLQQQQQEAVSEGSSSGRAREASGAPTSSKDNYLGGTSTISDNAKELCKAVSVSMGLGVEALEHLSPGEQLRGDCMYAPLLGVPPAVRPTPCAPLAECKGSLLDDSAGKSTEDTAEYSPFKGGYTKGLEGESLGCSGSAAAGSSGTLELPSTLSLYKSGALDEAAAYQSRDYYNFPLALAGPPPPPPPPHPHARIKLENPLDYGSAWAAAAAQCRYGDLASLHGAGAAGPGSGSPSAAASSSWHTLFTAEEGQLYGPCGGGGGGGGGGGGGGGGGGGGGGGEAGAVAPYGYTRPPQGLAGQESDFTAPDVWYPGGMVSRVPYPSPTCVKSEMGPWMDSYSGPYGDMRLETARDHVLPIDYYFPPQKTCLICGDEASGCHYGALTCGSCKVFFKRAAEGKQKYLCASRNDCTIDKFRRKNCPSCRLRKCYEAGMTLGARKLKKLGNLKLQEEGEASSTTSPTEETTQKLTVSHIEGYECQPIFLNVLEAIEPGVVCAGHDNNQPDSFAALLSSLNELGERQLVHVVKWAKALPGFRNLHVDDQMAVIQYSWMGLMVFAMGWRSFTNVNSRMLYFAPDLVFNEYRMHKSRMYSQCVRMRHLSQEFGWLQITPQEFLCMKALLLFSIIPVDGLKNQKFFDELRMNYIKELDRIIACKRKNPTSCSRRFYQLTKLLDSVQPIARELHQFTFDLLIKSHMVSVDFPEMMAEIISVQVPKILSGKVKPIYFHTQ
As to the kind of experiment: VCAP AR Degradation Assay. It is filed as cell-based. The conditions noted are these: 24 h, AR ELISA; for DC50: concentration of compound when AR level = 50% of DMSO control; for remaining activity at up to 5 µM: top concentration 5 μM, read-out: Y (lowest measured AR level normalized to DMSO control, AR degradation efficiency). The protocol: VCAP AR Degradation Assay. Test compounds were pre-dispensed into a Corning CellBind 96-well clear bottom plate (Cat #3300) using an acoustic dispenser to make a 10-point concentration series at 1:3 dilution for each compound. The final top concentration of each compound was 5 μM. DMSO at a final concentration of 0.1% was used as a control. VCaP cells cultured in DMEM with 8% fetal bovine serum (FBS) were seeded at 50K cells per well in a 200 μL volume into the compound plate and incubated at 37° C. in a CO2 incubator for 24 h. The medium was carefully removed from the cells and the plate was placed on ice. One hundred μL of ice-cold 1× cell lysis buffer from Cell Signaling Technologies (Cat #9803) was added to each well of the cells and the plate was incubated at 4° C. on a shaker for 1 h. Fifteen μL of cell lysate was used for AR ELISA detection using a PathScan Total Sandwich AR ELISA kit (Cell Signaling Technology, Cat #12580). AR levels in compound-treated wells were normalized to that of DMSO control and expressed as percent of control (PoC) (y). A Four Parameter Logistic Model (Sigmoidal Dose-Response Model) was used to determine the compound's DC50, and EC50, using the following equation: y=(A+((B−A)/(1+((C/x)^D)))) • A=YMin (lowest AR level normalized to DMSO control in response to compound treatment, as determined by curve fit) • B=YMax (maximum AR level as determined by curve fit) • C=EC50 • D=Hill Slope • x=compound concentration • EC50=the concentration of compound when y=(YMax−YMin)/2 • DC50=the concentration of the compound when y=50% of DMSO control (50% AR degradation) • y=AR protein level normalized to DMSO control
The lowest measured AR level normalized to DMSO control in response to compound treatment, termed Y value, was used to characterize the compound-mediated AR degradation efficiency.
(An ELISA detects its analyte on a solid surface through an enzyme-linked reagent.)

The DC50 is the concentration giving 50% degradation.

For `Cn1nc(C2CCC(=O)NC2=O)c2cccc(NC(=O)CN3CCN(CCO[C@H]4CC[C@H](N5C(=S)N(c6cnc(C#N)c(C(F)(F)F)c6)C(=O)C5(C)C)CC4)C[C@@H]3C(F)(F)F)c21` (stereo partly drawn) [Cmpd 22, 2-((R)-4-(2-(((trans)-4-(3-(6-Cyano-5-(trifluoromethyl)pyridin-3-yl)-5,5-dimethyl-4-oxo-2-thioxoimidazolidin-1-yl)cyclohexyl)oxy)ethyl)-2-(trifluoromethyl)piperazin-1-yl)-N-(3-(2,6-dioxopiperidin-3-yl)-1-methyl-1H-indazol-7-yl)acetamide], the DC50 was < 2 nM and the remaining activity at up to 5 µM was 0 to 25%.

Turning to `C[C@@H]1C[C@@H](CCO[C@H]2CC[C@H](N3C(=S)N(c4cnc(C#N)c(C(F)(F)F)c4)C(=O)C3(C)C)CC2)C[C@H](C)N1CC(=O)Nc1cccc2c(C3CCC(=O)NC3=O)nn(C)c12` (stereo partly drawn) [Cmpd 16, 2-((2R,4s,6S)-4-(2-(((trans)-4-(3-(6-Cyano-5-(trifluoromethyl)pyridin-3-yl)-5,5-dimethyl-4-oxo-2-thioxoimidazolidin-1-yl)cyclohexyl)oxy)ethyl)-2,6-dimethylpiperidin-1-yl)-N-(3-(2,6-dioxopiperidin-3-yl)-1-methyl-1H-indazol-7-yl)acetamide], the DC50 was < 2 nM and the remaining activity at up to 5 µM was 0 to 25%.

Consider `C[C@@H]1C[C@@H](CCO[C@H]2CC[C@H](N3C(=S)N(c4ccc(C#N)c(C(F)(F)F)c4)C(=O)C3(C)C)CC2)C[C@H](C)N1CC(=O)Nc1cccc2c(C3CCC(=O)NC3=O)nn(C)c12` (stereo partly drawn) [Cmpd 12, 2-((2R,4s,6S)-4-(2-((trans-4-(3-(4-Cyano-3-(trifluoromethyl)phenyl)-5,5-dimethyl-4-oxo-2-thioxoimidazolidin-1-yl)cyclohexyl)oxy)ethyl)-2,6-dimethylpiperidin-1-yl)-N-(3-(2,6-dioxopiperidin-3-yl)-1-methyl-1H-indazol-7-yl)acetamide hydrochloride], for which the DC50 fell in the range of 2 to 5 nM and the remaining activity at up to 5 µM was in the range of 0 to 25%.

`C[C@@H]1CN(CCCO[C@H]2CC[C@H](N3C(=S)N(c4ccc(C#N)c(Cl)c4)C(=O)C3(C)C)CC2)C[C@H](C)N1CC(=O)Nc1cccc2c(C3CCC(=O)NC3=O)nn(C)c12` (stereo partly drawn) [Cmpd 5, 2-((2R,6S)-4-(3-((trans-4-(3-(3-Chloro-4-cyanophenyl)-5,5-dimethyl-4-oxo-2-thioxoimidazolidin-1-yl)cyclohexyl)oxy)propyl)-2,6-dimethylpiperazin-1-yl)-N-(3-(2,6-dioxopiperidin-3-yl)-1-methyl-1H-indazol-7-yl)acetamide hydrochloride]: the DC50 was < 2 nM and the remaining activity at up to 5 µM lay in the range of 30 to 50%.

As for `C[C@@H]1CN(CCC[C@H]2CC[C@H](N3C(=S)N(c4cnc(C#N)c(C(F)(F)F)c4)C(=O)C3(C)C)CC2)C[C@H](C)N1CC(=O)Nc1cccc2c(C3CCC(=O)NC3=O)nn(C)c12` (stereo partly drawn) [Cmpd 9, 2-((2R,6S)-4-(3-(trans-4-(3-(6-Cyano-5-(trifluoromethyl)pyridin-3-yl)-5,5-dimethyl-4-oxo-2-thioxoimidazolidin-1-yl)cyclohexyl)propyl)-2,6-dimethylpiperazin-1-yl)-N-(3-(2,6-dioxopiperidin-3-yl)-1-methyl-1H-indazol-7-yl)acetamide], the half-maximal degradation concentration (DC50) lay within 2 to 5 nM and the remaining activity at up to 5 µM was in the range of 25 to 30%.

Consider `C[C@@H]1CN(CCO[C@H]2CC[C@H](N3C(=S)N(c4ccc(C#N)c(C(F)(F)F)c4)C(=O)C3(C)C)CC2)C[C@H](C)N1CC(=O)Nc1cccc2c(C3CCC(=O)NC3=O)nn(C)c12` (stereo partly drawn) [Cmpd 1, 2-((2S,6R)-4-(2-((trans-4-(3-(4-Cyano-3-(trifluoromethyl)phenyl)-5,5-dimethyl-4-oxo-2-thioxoimidazolidin-1-yl)cyclohexyl)oxy)ethyl)-2,6-dimethylpiperazin-1-yl)-N-(3-(2,6-dioxopiperidin-3-yl)-1-methyl-1H-indazol-7-yl)acetamide hydrochloride], for which the DC50 was < 2 nM and the remaining activity at up to 5 µM is 0 to 25%.

Consider `Cn1nc(C2CCC(=O)NC2=O)c2cccc(NC(=O)CN3CCC(CCO[C@H]4CC[C@H](N5C(=S)N(c6cnc(C#N)c(C(F)(F)F)c6)C(=O)C5(C)C)CC4)C(F)(F)C3)c21` (stereo partly drawn) [Cmpd 29, 2-(4-(2-(((trans)-4-(3-(6-Cyano-5-(trifluoromethyl)pyridin-3-yl)-5,5-dimethyl-4-oxo-2-thioxoimidazolidin-1-yl)cyclohexyl)oxy)ethyl)-3,3-difluoropiperidin-1-yl)-N-(3-(2,6-dioxopiperidin-3-yl)-1-methyl-1H-indazol-7-yl)acetamide], for which the DC50 was < 2 nM and the remaining activity at up to 5 µM fell in the range of 0 to 25%.

For `C[C@@H]1CN(CCCO[C@H]2CC[C@H](N3C(=S)N(c4cnc(C#N)c(C(F)(F)F)c4)C(=O)C3(C)C)CC2)C[C@H](C)N1CC(=O)Nc1cccc2c(C3CCC(=O)NC3=O)nn(C)c12` (stereo partly drawn) [Cmpd 7, 2-((2R,6S)-4-(3-((trans-4-(3-(6-Cyano-5-(trifluoromethyl)pyridin-3-yl)-5,5-dimethyl-4-oxo-2-thioxoimidazolidin-1-yl)cyclohexyl)oxy)propyl)-2,6-dimethylpiperazin-1-yl)-N-(3-(2,6-dioxopiperidin-3-yl)-1-methyl-1H-indazol-7-yl)acetamide hydrochloride], the DC50 was < 2 nM and the remaining activity at up to 5 µM is 0 to 25%.

In the case of `C[C@@H]1CN(CCO[C@H]2CC[C@H](N3C(=S)N(c4cnc(C#N)c(Cl)c4)C(=O)C3(C)C)CC2)C[C@H](C)N1CC(=O)Nc1cccc2c(C3CCC(=O)NC3=O)nn(C)c12` (stereo partly drawn) [Cmpd 6, 2-((2R,6S)-4-(2-((trans-4-(3-(5-Chloro-6-cyanopyridin-3-yl)-5,5-dimethyl-4-oxo-2-thioxoimidazolidin-1-yl)cyclohexyl)oxy)ethyl)-2,6-dimethylpiperazin-1-yl)-N-(3-(2,6-dioxopiperidin-3-yl)-1-methyl-1H-indazol-7-yl)acetamide hydrochloride], the DC50 was < 2 nM and the remaining activity at up to 5 µM fell in the range of 0 to 25%.

Regarding `Cn1nc(C2CCC(=O)NC2=O)c2cccc(NC(=O)CN3CCN(CCCO[C@H]4CC[C@H](N5C(=S)N(c6ccc(C#N)c(C(F)(F)F)c6)C(=O)C5(C)C)CC4)C[C@@H]3C(F)(F)F)c21` (stereo partly drawn) [Cmpd 21, 2-((R)-4-(3-(((trans)-4-(3-(4-Cyano-3-(trifluoromethyl)phenyl)-5,5-dimethyl-4-oxo-2-thioxoimidazolidin-1-yl)cyclohexyl)oxy)propyl)-2-(trifluoromethyl)piperazin-1-yl)-N-(3-(2,6-dioxopiperidin-3-yl)-1-methyl-1H-indazol-7-yl)acetamide], the DC50 was < 2 nM and the remaining activity at up to 5 µM was in the range of 0 to 25%.

Consider `C[C@@H]1C[C@H](OCCO[C@H]2CC[C@H](N3C(=S)N(c4ccc(C#N)c(C(F)(F)F)c4)C(=O)C3(C)C)CC2)C[C@H](C)N1CC(=O)Nc1cccc2c(C3CCC(=O)NC3=O)nn(C)c12` (stereo partly drawn) [Cmpd 27, 2-((2R,4r,6S)-4-(2-(((trans)-4-(3-(4-Cyano-3-(trifluoromethyl)phenyl)-5,5-dimethyl-4-oxo-2-thioxoimidazolidin-1-yl)cyclohexyl)oxy)ethoxy)-2,6-dimethylpiperidin-1-yl)-N-(3-(2,6-dioxopiperidin-3-yl)-1-methyl-1H-indazol-7-yl)acetamide], for which the DC50 lay within 2 to 5 nM and the remaining activity at up to 5 µM lay in the range of 25 to 30%.
